# Like-named read-outs stand apart in the source and are kept apart here.
# Tests used:
# T47D cells = experiment: Cell-based assay: anti-proliferative activity, Cell Counting Kit-8, 72 hours (T47D); conditions: Homo sapiens, T47D, 72 h
# Protocol: (§1) To evaluate the expression status of MELK in several cell lines, western blot analysis was performed using crude cell lysate collected from those cells. Anti-MELK antibody (clone 31, BD Biosciences) was used to visualize the expression.
# (§2) Active candidate inhibitors against MELK were evaluated for their target-specific cytotoxicity using T47D, A549, BT-549, and HT-1197 cells was used for negative control. 100 micro-L of cell suspension was seeded onto 96-well microtiter plate (ViewPlate-96FTC, PerkinElmer). The initial cell concentration of T47D, A549, BT-549, and HT-1197 were 3,000 cells/well, 2,000 cells/well and 2,500 cells/well, respectively. Cellular growth was determined using Cell Counting Kit-8 (DOJINDO) at 72 hours after the exposure of the candidate inhibitors. […] Accurate IC50 values were calculated as described previously.
# MELK = MELK (Homo sapiens, UniProt Q14680); experiment: Kinase assay: MELK activity, phosphorylation of FITC-labeled histone H3 peptide measured by IMAP fluorescence polarization; format: biochemical
# How it was run: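 Substrate is FITC-labeled histone H3 peptide. Compounds come from a 12.5 mM DMSO stock, diluted so assay DMSO is 1%. The stop step adds threefold-volume progressive binding solution, followed by 0.5 h at room temperature and an FP read.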
# A549 cells = experiment: Cell-based assay: anti-proliferative activity, Cell Counting Kit-8, 72 hours (A549); conditions: Homo sapiens, A549, 72 h, 72 hours
# Protocol: as §2, with “100” for “Active candidate inhibitors against MELK were evaluated for their target-specific cytotoxicity using T47D, A549, BT-549, and HT-1197 cells was used for negative control. 100”
# HT-1197 cells = experiment: Cell-based assay: anti-proliferative activity, Cell Counting Kit-8, 72 hours (HT-1197, negative control without MELK expression); conditions: Homo sapiens, HT1197, 72 h, HT1197 cells (negative control, no MELK expression), 72 hours
# Protocol: as §1, §2
# [1] = 50 micro-M ATP, FITC-labeled histone H3 peptide substrate, IMAP fluorescence polarization, read-out: IC50 (μM) (kinase assay)
# Sequence of MELK (Q14680 whole entry, looked up): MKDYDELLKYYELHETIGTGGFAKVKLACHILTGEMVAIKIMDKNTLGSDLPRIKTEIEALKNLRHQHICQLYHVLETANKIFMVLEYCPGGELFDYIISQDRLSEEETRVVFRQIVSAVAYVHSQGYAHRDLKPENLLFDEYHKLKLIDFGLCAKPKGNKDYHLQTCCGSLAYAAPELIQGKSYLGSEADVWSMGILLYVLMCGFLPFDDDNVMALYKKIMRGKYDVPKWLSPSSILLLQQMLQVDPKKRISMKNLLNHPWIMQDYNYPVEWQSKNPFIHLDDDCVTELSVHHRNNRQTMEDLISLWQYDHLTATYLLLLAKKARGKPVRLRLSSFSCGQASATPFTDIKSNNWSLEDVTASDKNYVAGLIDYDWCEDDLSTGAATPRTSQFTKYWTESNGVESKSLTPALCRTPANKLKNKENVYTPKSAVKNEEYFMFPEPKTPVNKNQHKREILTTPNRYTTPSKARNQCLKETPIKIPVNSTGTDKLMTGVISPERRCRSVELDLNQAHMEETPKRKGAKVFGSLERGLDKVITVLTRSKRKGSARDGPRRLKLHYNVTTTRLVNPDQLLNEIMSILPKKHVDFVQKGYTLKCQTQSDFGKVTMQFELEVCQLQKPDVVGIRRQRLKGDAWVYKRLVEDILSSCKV
SMILES,IC50 (T47D cells),IC50 (MELK; [1]),IC50 (A549 cells),IC50 (HT-1197 cells),IC50 (MELK)
"COc1cc(-c2ccc3ncc(S(C)(=O)=O)c(Nc4ccc(CN(C)C)cc4)c3c2)cc(Cl)c1O [Example 410, 2-chloro-4-(4-(4-((dimethylamino)methyl)phenylamino)-3-(methylsulfonyl)quinolin-6-yl)-6-methoxyphenol]",0.58 µM,0.0068 µM,1.2 µM,6.2 µM,
"CN1CCN(c2ccc(-c3c(C(=O)C4CC4)cnc4ccc(-c5cc(Cl)c(O)c(Cl)c5)cc34)cc2)CC1 [Example 430, cyclopropyl(6-(3,5-dichloro-4-hydroxyphenyl)-4-(4-(4-methylpiperazin-1-yl)phenyl)quinolin-3-yl)methanone]",1.3 µM,0.033 µM,2.7 µM,9.2 µM,
"CN(C)Cc1ccc(Nc2c(C(=O)C3CC3)cnc3ccc(-c4cc(Cl)c(O)c(Cl)c4)cc23)nc1 [Example 417, cyclopropyl(6-(3,5-dichloro-4-hydroxyphenyl)-4-(5-((dimethylamino)methyl)pyridin-2-ylamino)quinolin-3-yl)methanone]",1.7 µM,0.0099 µM,1.8 µM,22 µM,
"CN(C)CC(=O)N1CCN(c2c(C(=O)C3CC3)cnc3ccc(-c4cc(F)c(O)c(Cl)c4)cc23)CC1 [Example 442, 1-(4-(6-(3-chloro-5-fluoro-4-hydroxyphenyl)-3-(cyclopropanecarbonyl)quinolin-4-yl)piperazin-1-yl)-2-(dimethylamino)ethanone]",0.74 µM,0.0035 µM,1.5 µM,5.5 µM,
CN1CCCC1c1ccc(Nc2c(C(=O)C3CC3)cnc3ccc(-c4cc(Cl)c(O)c(Cl)c4)cc23)nc1 (stereo not drawn) [Example 445],7.5 µM,0.022 µM,4.1 µM,10 µM,
O=C(c1cnc2ccc(-c3cc(Cl)c(O)c(Cl)c3)cc2c1-c1ccc(CN2CCCC2)cc1)C1CC1 [Example 452],0.55 µM,0.0026 µM,1.6 µM,10 µM,
CN(C)[C@H]1CC[C@H](Nc2c(C#N)cnc3ccc(-c4cc(F)c(O)c(Cl)c4)cc23)CC1 [Example 446],0.61 µM,0.0027 µM,8.4 µM,10 µM,
CN(C)C[C@H]1CC[C@H](Nc2c(S(C)(=O)=O)cnc3ccc(-c4ccc(O)c(Cl)c4)cc23)CC1 [Example 424],0.43 µM,0.013 µM,0.79 µM,1.1 µM,
"O=C(c1cnc2ccc(-c3ccc(O)c(Cl)c3)cc2c1N1CCN(CCN2CCCC2)CC1)C1CC1 [Example 403, (6-(3-chloro-4-hydroxyphenyl)-4-(4-(2-(pyrrolidin-1-yl)ethyl)piperazin-1-yl)quinolin-3-yl)(cyclopropyl)methanone]",4.5 µM,0.011 µM,1.3 µM,10 µM,
O=C(c1cnc2ccc(-c3cc(Cl)c(O)c(Cl)c3)cc2c1-c1ccc(NCCN2CCOCC2)nc1)C1CC1 [Example 450],1.8 µM,0.018 µM,4.6 µM,12 µM,
CN(C)C[C@H]1CC[C@H](Nc2c(C(=O)C3CC3)cnc3ccc(-c4cnc(C#N)nc4)cc23)CC1 [Example 426],0.43 µM,0.0025 µM,1.5 µM,3.7 µM,
"CS(=O)(=O)c1cnc2ccc(-c3ccc(O)c(Cl)c3)cc2c1N1CCC(CN2CCCC2)CC1 [Example 408, 2-chloro-4-(3-(methylsulfonyl)-4-(4-(pyrrolidin-1-ylmethyl)piperidin-1-yl)quinolin-6-yl)phenol]",8.2 µM,0.009 µM,3.2 µM,9.5 µM,
"COc1cc(-c2ccc3ncc(C#N)c(N4CCC(CN5CCCC5)CC4)c3c2)cc(Cl)c1O [Example 428, 6-(3-chloro-4-hydroxy-5-methoxyphenyl)-4-(4-(pyrrolidin-1-ylmethyl)piperidin-1-yl)quinoline-3-carbonitrile]",7.6 µM,0.0037 µM,2.6 µM,13 µM,
"CN(C)CC(=O)N1CCN(c2c(C(=O)C3CC3)cnc3ccc(-c4ccc(O)c(Cl)c4)cc23)CC1 [Example 441, 1-(4-(6-(3-chloro-4-hydroxyphenyl)-3-(cyclopropanecarbonyl)quinolin-4-yl)piperazin-1-yl)-2-(dimethylamino)ethanone]",0.63 µM,0.004 µM,0.54 µM,46 µM,
"CN(C)Cc1ccc(Nc2c(C(=O)C3CCCC3)cnc3ccc(-c4ccc(O)c(Cl)c4)cc23)cc1 [Example 387, (6-(3-chloro-4-hydroxyphenyl)-4-(4-((dimethylamino)methyl)phenylamino)quinolin-3-yl)(cyclopentyl)methanone]",1.6 µM,0.089 µM,1 µM,1.9 µM,
"N#Cc1cnc2ccc(-c3cc(F)c(O)c(Cl)c3)cc2c1N1CCC(CN2CCCC2)CC1 [Example 434, 6-(3-chloro-5-fluoro-4-hydroxyphenyl)-4-(4-(pyrrolidin-1-ylmethyl)piperidin-1-yl)quinoline-3-carbonitrile]",0.45 µM,0.035 µM,1.1 µM,10 µM,
"COc1cc(-c2ccc3ncc(S(C)(=O)=O)c(N4CCC(CN5CCCC5)CC4)c3c2)cc(Cl)c1O [Example 412, 2-chloro-6-methoxy-4-(3-(methylsulfonyl)-4-(4-(pyrrolidin-1-ylmethyl)piperidin-1-yl)quinolin-6-yl)phenol]",1.4 µM,0.002 µM,0.58 µM,2.5 µM,
"COc1cc(-c2ccc3ncc(C(=O)C4CC4)c(Nc4ccc(CN5CCN(C)CC5)cc4)c3c2)ccc1O [Example 405, cyclopropyl(6-(4-hydroxy-3-methoxyphenyl)-4-(4-((4-methylpiperazin-1-yl)methyl)phenylamino)quinolin-3-yl)methanone]",0.76 µM,0.017 µM,0.8 µM,3.5 µM,
"N#Cc1cnc2ccc(-c3ccc(O)c(Cl)c3)cc2c1N1CCC(CN2CCCC2)CC1 [Example 433, 6-(3-chloro-4-hydroxyphenyl)-4-(4-(pyrrolidin-1-ylmethyl)piperidin-1-yl)quinoline-3-carbonitrile]",0.54 µM,0.043 µM,0.7 µM,3.7 µM,
"CC(=O)c1cnc2ccc(-c3cnc(C#N)nc3)cc2c1Nc1ccc(CN2CCCC2)cc1 [Example 413, 5-(3-acetyl-4-(4-(pyrrolidin-1-ylmethyl)phenylamino)quinolin-6-yl)pyrimidine-2-carbonitrile]",0.35 µM,0.0029 µM,1.7 µM,1.2 µM,
COc1cc(-c2ccc3ncc(C(=O)C4CC4)c(N4C[C@@H]5C[C@H]4CN5C(=O)CN(C)C)c3c2)cc(Cl)c1O [Example 456],3.8 µM,,4.2 µM,29 µM,0.0078 µM
"CN(C)Cc1ccc(Nc2c(C(=O)C3CC3)cnc3ccc(-c4cc(F)c(O)c(Cl)c4)cc23)nc1 [Example 435, (6-(3-chloro-5-fluoro-4-hydroxyphenyl)-4-(5-((dimethylamino)methyl)pyridin-2-ylamino)quinolin-3-yl)(cyclopropyl)methanone]",2.7 µM,0.049 µM,2.8 µM,12 µM,
CN(C)CC1CCN(c2c(C(=O)C3CC3)cnc3ccc(-c4ccc5[nH]ccc5c4)cc23)CC1 [Example 453],1.2 µM,0.094 µM,0.48 µM,2.3 µM,
CN1CCCC1c1ccc(Nc2c(C(=O)C3CC3)cnc3ccc(-c4cc(F)c(O)c(Cl)c4)cc23)nc1 (stereo not drawn) [Example 443],7.1 µM,0.043 µM,6.6 µM,10 µM,
CN(C)CC1CCN(c2c(C(=O)C3CC3)cnc3ccc(-c4ccc(O)c(C(F)(F)F)c4)cc23)CC1 [Example 454],4 µM,0.014 µM,1.3 µM,5.3 µM,
"CN(C)Cc1ccc(Nc2c(C(=O)C3CC3)cnc3ccc(-c4cnc(C#N)nc4)cc23)nc1 [Example 439, 5-(3-(cyclopropanecarbonyl)-4-(5-((dimethylamino)methyl)pyridin-2-ylamino)quinolin-6-yl)pyrimidine-2-carbonitrile]",0.61 µM,0.058 µM,4 µM,3.6 µM,
"CN(C)CC1CCN(c2c(C(=O)C3CCCC3)cnc3ccc(-c4ccc(O)c(Cl)c4)cc23)CC1 [Example 389, (6-(3-chloro-4-hydroxyphenyl)-4-(4-((dimethylamino)methyl)piperidin-1-yl)quinolin-3-yl)(cyclopentyl)methanone]",2.9 µM,0.031 µM,1.7 µM,6.9 µM,

# Reference: patent US9120749B2, “Quinoline derivatives and MELK inhibitors containing the same” (ONCOTHERAPY SCIENCE, INC., priority 2010, dated 2015)
